Test: Residual antioxidant activity (ABTS^+) upon exposure to UV-irradiated TiO2
Format: physicochemical
Settings: FIG. 6
Protocol: Exposure of enzymes to UV-irradiated TiO2: Enzyme (0.8 mg protein/mL, total 10 mL in 25 mM phosphate buffer, pH 7.5) was placed in an open scintillation vial. TiO2 fine powder (0.25 mg/mL) was added to the protein solution and the suspension was stirred gently at room temperature (25° C.) with a magnetic stir bar placed inside the vial. The enzyme-TiO2 suspension was placed under a […] UV lamp (model No. B-100AP, UVP, San Gabriel, Calif.). The distance between the UV lamp and the vial was 18 cm. At this distance, the UV irradiance at 365 nm (λmax) was 8 mW/cm^2 (determined using a […]® UV meter (Model No. J-221). It was also verified that there was no thermal denaturation of the enzyme during irradiation and the temperature of the enzyme-TiO2 suspension remained constant (25±2° C.) throughout. Exposure of antioxidants to UV-irradiated TiO2: Trolox (0.01 mg/mL) was dissolved in 10 mL phosphate buffer (25 mM, pH 7.5). TiO2 (0.25 mg/mL) was added to the Trolox solution. The suspension was stirred and irradiated with UV as described above. At 30 min intervals, 1 mL aliquots were removed from the irradiating suspension and filtered through a 0.2 μm filter. […] Determination of residual antioxidant activity: Antioxidant activities of modified enzymes and the modifiers were measured according to the following modification of the assay reported by Re et al. Re, […].; Yang, M.; Rice-Evans, C. […]

Cc1c(C)c2c(c(C)c1O)CCC(C)(C(=O)O)O2 (stereo not shown) [Trolox, 6-hydroxy-2,5,7,8-tetramethylchroman-2-carboxylic acid]
loss of free radical absorbing activity during the first hour of photooxidation (TiO2-UV): 80%
